Assay results published in PubChem BioAssay (NCI).
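GI50 is the concentration that inhibits growth by half. TGI is the concentration that stops growth completely.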

What was measured:
Assay in all cases: DTP human tumour cell line panel, 384-well format
M14 melanoma = test system: M14 melanoma
K-562 leukemia = test system: K-562 leukemia
SN12C renal = test system: SN12C renal
ACHN renal = test system: ACHN renal
MDA-MB-435 melanoma = test system: MDA-MB-435 melanoma
MDA-MB-468 breast = test system: MDA-MB-468 breast
HOP-62 NSCLC = test system: HOP-62 NSCLC
DU-145 prostate = test system: DU-145 prostate
UACC-257 melanoma = test system: UACC-257 melanoma
OVCAR-3 ovarian = test system: OVCAR-3 ovarian
BT-549 breast = test system: BT-549 breast
NCI-H322M lung = test system: NCI-H322M lung
SK-MEL-2 melanoma = test system: SK-MEL-2 melanoma
A549 NSCLC = test system: A549 NSCLC
HCT-15 colon = test system: HCT-15 colon
SK-OV-3 ovarian = test system: SK-OV-3 ovarian
KM12 colon = test system: KM12 colon
SW-620 colon = test system: SW-620 colon
MOLT-4 leukemia = test system: MOLT-4 leukemia
UACC-62 melanoma = test system: UACC-62 melanoma
SNB-75 CNS = test system: SNB-75 CNS
UO-31 renal = test system: UO-31 renal
IGROV1 ovarian = test system: IGROV1 ovarian
NCI-H23 lung = test system: NCI-H23 lung
NCI-H226 lung = test system: NCI-H226 lung
U251 glioblastoma = test system: U251 glioblastoma
HOP-92 NSCLC = test system: HOP-92 NSCLC
SK-MEL-28 melanoma = test system: SK-MEL-28 melanoma
A498 renal = test system: A498 renal
COLO 205 colon = test system: COLO 205 colon
HT29 colon = test system: HT29 colon
OVCAR-4 ovarian = test system: OVCAR-4 ovarian
MDA-MB-231 breast = test system: MDA-MB-231 breast
OVCAR-8 ovarian = test system: OVCAR-8 ovarian
SF-539 CNS = test system: SF-539 CNS
OVCAR-5 ovarian = test system: OVCAR-5 ovarian
T-47D breast = test system: T-47D breast
MCF7 breast = test system: MCF7 breast
PC-3 prostate = test system: PC-3 prostate
EKVX NSCLC = test system: EKVX NSCLC
TK-10 renal = test system: TK-10 renal
NCI-H460 NSCLC = test system: NCI-H460 NSCLC
HL-60(TB) leukemia = test system: HL-60(TB) leukemia
CAKI-1 renal = test system: CAKI-1 renal
HCT-116 colon = test system: HCT-116 colon
SNB-19 CNS = test system: SNB-19 CNS
MALME-3M melanoma = test system: MALME-3M melanoma
SF-295 CNS = test system: SF-295 CNS
SF-268 CNS = test system: SF-268 CNS
HS 578T breast = test system: HS 578T breast
NCI-H522 lung = test system: NCI-H522 lung
RXF 393 renal = test system: RXF 393 renal
SK-MEL-5 melanoma = test system: SK-MEL-5 melanoma
786-0 renal = test system: 786-0 renal
SR leukemia = test system: SR leukemia
CCRF-CEM leukemia = test system: CCRF-CEM leukemia
RPMI-8226 leukemia = test system: RPMI-8226 leukemia
HCC-2998 colon = test system: HCC-2998 colon
LOX IMVI melanoma = test system: LOX IMVI melanoma
NCI/ADR-RES ovarian = test system: NCI/ADR-RES ovarian

## C[C@@H]1Cc2c([nH]c3ccccc23)[C@@H](c2c(F)cc(NC3CN(CCCF)C3)cc2F)N1CC(F)(F)CO
M14 melanoma
  GI50: 1.78 µM
  TGI: 3.17 µM
K-562 leukemia
  GI50: 1.59 µM
  TGI: 2.95 µM
SN12C renal
  GI50: 4.89 µM
  TGI: 16.5 µM
ACHN renal
  GI50: 1.71 µM
  TGI: 3.16 µM
MDA-MB-435 melanoma
  GI50: 1.73 µM
  TGI: 3.11 µM
MDA-MB-468 breast
  GI50: 1.33 µM
  TGI: 2.75 µM
HOP-62 NSCLC
  GI50: 2.37 µM
  TGI: 6.24 µM
DU-145 prostate
  GI50: 2.5 µM
  TGI: 6.5 µM
UACC-257 melanoma
  GI50: 1.56 µM
  TGI: 2.91 µM
OVCAR-3 ovarian
  GI50: 1.88 µM
  TGI: 4.05 µM
BT-549 breast
  GI50: 1.44 µM
  TGI: 2.85 µM
NCI-H322M lung
  GI50: 2.81 µM
  TGI: 6.54 µM
SK-MEL-2 melanoma
  GI50: 1.63 µM
  TGI: 2.98 µM
A549 NSCLC
  GI50: 4.1 µM
  TGI: 14.5 µM
HCT-15 colon
  GI50: 1.95 µM
  TGI: 3.74 µM
SK-OV-3 ovarian
  GI50: 1.83 µM
  TGI: 3.91 µM
KM12 colon
  GI50: 1.73 µM
  TGI: 3.16 µM
SW-620 colon
  GI50: 1.71 µM
  TGI: 3.12 µM
MOLT-4 leukemia
  GI50: 1.39 µM
  TGI: 2.68 µM
UACC-62 melanoma
  GI50: 1.58 µM
  TGI: 2.95 µM
SNB-75 CNS
  GI50: 1.43 µM
  TGI: 3.22 µM
UO-31 renal
  GI50: 1.78 µM
  TGI: 3.81 µM
IGROV1 ovarian
  GI50: 1.84 µM
  TGI: 4.33 µM
NCI-H23 lung
  GI50: 5.52 µM
  TGI: 16.9 µM
NCI-H226 lung
  GI50: 2.35 µM
  TGI: 7.78 µM
U251 glioblastoma
  GI50: 1.77 µM
  TGI: 3.32 µM
HOP-92 NSCLC
  GI50: 1.79 µM
  TGI: 3.68 µM
SK-MEL-28 melanoma
  GI50: 1.6 µM
  TGI: 2.96 µM
A498 renal
  GI50: 1.45 µM
  TGI: 2.82 µM
COLO 205 colon
  GI50: 2.07 µM
  TGI: 3.56 µM
HT29 colon
  GI50: 1.71 µM
  TGI: 3.13 µM
OVCAR-4 ovarian
  GI50: 1.32 µM
  TGI: 4.65 µM
MDA-MB-231 breast
  GI50: 3.54 µM
  TGI: 12.1 µM
OVCAR-8 ovarian
  GI50: 2.7 µM
  TGI: 8.09 µM
SF-539 CNS
  GI50: 1.64 µM
  TGI: 3.25 µM
OVCAR-5 ovarian
  GI50: 4.09 µM
  TGI: 15.4 µM
T-47D breast
  GI50: 1.3 µM
  TGI: 2.69 µM
MCF7 breast
  TGI: 1.41 µM
PC-3 prostate
  GI50: 1.84 µM
  TGI: 3.88 µM
EKVX NSCLC
  GI50: 1.87 µM
  TGI: 6.39 µM
TK-10 renal
  GI50: 1.75 µM
  TGI: 3.26 µM
NCI-H460 NSCLC
  GI50: 1.47 µM
  TGI: 2.86 µM
HL-60(TB) leukemia
  GI50: 1.39 µM
  TGI: 2.69 µM
CAKI-1 renal
  GI50: 1.66 µM
  TGI: 3.25 µM
HCT-116 colon
  GI50: 1.78 µM
  TGI: 3.21 µM
SNB-19 CNS
  GI50: 10.6 µM
  TGI: 22.4 µM
MALME-3M melanoma
  GI50: 1.55 µM
  TGI: 2.89 µM
SF-295 CNS
  GI50: 1.97 µM
  TGI: 3.68 µM
SF-268 CNS
  GI50: 1.95 µM
  TGI: 4.11 µM
HS 578T breast
  GI50: 1.41 µM
  TGI: 2.73 µM
NCI-H522 lung
  GI50: 2.36 µM
  TGI: 4.63 µM
RXF 393 renal
  GI50: 1.34 µM
  TGI: 2.88 µM
SK-MEL-5 melanoma
  GI50: 1.49 µM
  TGI: 2.82 µM
786-0 renal
  GI50: 1.82 µM
  TGI: 3.23 µM
SR leukemia
  GI50: 1.67 µM
  TGI: 3.03 µM

## COc1cc(Nc2ncc(F)c(Nc3ccc4c(n3)NC(=O)C(C)(C)O4)n2)cc(OC)c1OC
M14 melanoma
  GI50: 24.7 µM
  TGI: > 100 µM
SN12C renal
  GI50: 0.258 µM
  TGI: > 100 µM
CCRF-CEM leukemia
  GI50: 9.52 µM
  TGI: > 100 µM
ACHN renal
  GI50: 1.6 µM
  TGI: > 100 µM
MDA-MB-435 melanoma
  GI50: 9.68 µM
  TGI: > 100 µM
MDA-MB-468 breast
  GI50: 5.78 µM
  TGI: > 100 µM
HOP-62 NSCLC
  GI50: 5.75 µM
  TGI: 31.7 µM
RPMI-8226 leukemia
  GI50: > 100 µM
  TGI: > 100 µM
DU-145 prostate
  GI50: 14.6 µM
  TGI: > 100 µM
UACC-257 melanoma
  GI50: > 100 µM
  TGI: > 100 µM
HCC-2998 colon
  GI50: 14.7 µM
  TGI: > 100 µM
OVCAR-3 ovarian
  GI50: 6.28 µM
  TGI: > 100 µM
BT-549 breast
  GI50: 4.37 µM
  TGI: > 100 µM
NCI-H322M lung
  GI50: 4.17 µM
  TGI: > 100 µM
HCT-15 colon
  GI50: 4.36 µM
  TGI: > 100 µM
SK-OV-3 ovarian
  GI50: 0.371 µM
  TGI: > 100 µM
KM12 colon
  GI50: 0.346 µM
  TGI: > 100 µM
SW-620 colon
  GI50: > 100 µM
  TGI: > 100 µM
UACC-62 melanoma
  GI50: > 100 µM
  TGI: > 100 µM
LOX IMVI melanoma
  GI50: 6.19 µM
  TGI: > 100 µM
SNB-75 CNS
  GI50: 1.17 µM
  TGI: 28 µM
UO-31 renal
  GI50: 55.1 µM
  TGI: > 100 µM
NCI-H23 lung
  GI50: 0.538 µM
  TGI: > 100 µM
NCI-H226 lung
  GI50: 0.319 µM
  TGI: 13.2 µM
U251 glioblastoma
  GI50: 38.9 µM
  TGI: > 100 µM
HOP-92 NSCLC
  GI50: 15.4 µM
  TGI: > 100 µM
SK-MEL-28 melanoma
  GI50: 43.8 µM
  TGI: > 100 µM
A498 renal
  GI50: 20.6 µM
  TGI: > 100 µM
COLO 205 colon
  GI50: 4.34 µM
  TGI: 29.8 µM
HT29 colon
  GI50: 10.6 µM
  TGI: > 100 µM
OVCAR-4 ovarian
  GI50: 16.4 µM
  TGI: > 100 µM
MDA-MB-231 breast
  GI50: 2.58 µM
  TGI: 97 µM
OVCAR-8 ovarian
  GI50: 4.11 µM
  TGI: 19.7 µM
SF-539 CNS
  GI50: 1.24 µM
  TGI: 17.8 µM
T-47D breast
  GI50: 52.6 µM
  TGI: > 100 µM
MCF7 breast
  GI50: 3.9 µM
  TGI: > 100 µM
PC-3 prostate
  GI50: 8.94 µM
  TGI: > 100 µM
EKVX NSCLC
  GI50: 0.808 µM
  TGI: > 100 µM
TK-10 renal
  GI50: > 100 µM
  TGI: > 100 µM
NCI-H460 NSCLC
  GI50: 11.3 µM
  TGI: > 100 µM
HL-60(TB) leukemia
  GI50: 3.37 µM
  TGI: 8.28 µM
NCI/ADR-RES ovarian
  GI50: 13.4 µM
  TGI: > 100 µM
CAKI-1 renal
  GI50: 0.445 µM
  TGI: > 100 µM
HCT-116 colon
  GI50: > 100 µM
  TGI: > 100 µM
SNB-19 CNS
  GI50: 28.5 µM
  TGI: > 100 µM
MALME-3M melanoma
  GI50: 29.5 µM
  TGI: > 100 µM
SF-295 CNS
  GI50: 3.65 µM
  TGI: > 100 µM
SF-268 CNS
  GI50: 2.55 µM
  TGI: 47.4 µM
HS 578T breast
  GI50: 0.805 µM
  TGI: 18.4 µM
NCI-H522 lung
  GI50: 0.7 µM
  TGI: 13.1 µM
RXF 393 renal
  GI50: 0.516 µM
  TGI: 30.9 µM
SK-MEL-5 melanoma
  GI50: 7.41 µM
  TGI: > 100 µM
786-0 renal
  GI50: 16.3 µM
  TGI: > 100 µM
SR leukemia
  GI50: 1.27 µM
  TGI: 2.72 µM
